Here are results for two compounds from PMC7746380, “In vitro and in vivo efficacy of the novel oral proteasome inhibitor NNU546 in multiple myeloma” (Aging (Albany NY), 2020).

Data set [1] in a line: Microsomal stability, human liver microsomes. Format: in vitro ADME. As to conditions: pooled human liver microsomes, 1 μM compound, 37 °C. The procedure: (§1) Microsomal stabilities were determined by incubating 1 μM of the test compounds with rat, mouse, dog, monkey or human liver microsomes (Xenotech, USA) for different durations at 37 °C. Clearance and T1/2 were calculated by measuring the remaining percentage of test compounds at different time-points. Liquid chromatography/mass spectrometry (Xevo Quadrupole Time-of-Flight Mass Spectrometer; Waters) and an ACQUITY High-Performance Liquid Chromatography (HPLC) system ([…]) were used to determine the relative peak area for the parent compounds.
(§2) Antipyrine and testosterone (5 μM each)
(§3) were used as positive and negative controls, respectively. Abbreviations: t = time; CLint, intrinsic clearance. […]
A general note: Liver microsomes are a subcellular fraction often used to study metabolism.

A short description of data set [2]: Microsomal stability, rat liver microsomes. As to conditions: pooled rat liver microsomes, 1 μM compound, 37 °C. Format: in vitro ADME. The protocol:
as §1, §2, §3

A short description of data set [3]: Microsomal stability, mouse liver microsomes. Format: in vitro ADME. As to conditions: pooled mouse liver microsomes, 1 μM compound, 37 °C. The procedure: as §1, §2, §3
Data set [4] relates to NF-κB/luciferase 293T cells. The data set can be described thus: NF-κB inhibition assay (luciferase reporter, TNF-α stimulated). As to conditions: Homo sapiens, HEK-293T; 6 h pre-treatment, then 10 ng/ml TNF-α for 18 h; read from Figure 3K. Format: cell-based. The protocol:
To determine the inhibition of NF-κB signaling, the transfected NF-κB/luciferase 293T cells were pre-treated with various concentrations of NNU219 or bortezomib for 6 h and then stimulated with 10 ng/ml of tumor necrosis factor-α (TNF-α) for 18 h, followed by measurement of luciferase activity by using the Dual-Luciferase® Reporter Assay System (Promega Corp., Madison, WI, USA) as previously described.

The test system of the next data set is ARH77 xenograft. The data set can be described thus: ARH77 MM xenograft model. Format: in vivo, mice. As to conditions: BIW, 3 weeks. The procedure: For the ARH77 xenograft model, female BNX mice (n=5; 5-7 weeks old; Shanghai Sippr-BK laboratory Animal Co. Ltd.) were implanted with 5×10^6 of ARH77 cells in Matrigel (1:1) and randomized into treatment and vehicle groups when the mean tumor volume (MTV) reached 100-150 mm^3. For the intravenous treatment groups, mice were treated with bortezomib (1 mg/kg, BIW) or NNU219 (0.4 mg/kg, BIW), respectively. For i.g. administration, mice were treated with ixazomib (5 mg/kg, BIW) and NNU546 (1 mg/kg, QD) or NNU546 (2 mg/kg, QOD). Tumors were measured twice a week and the tumor volume was calculated using the following formula: 0.5 × (length × width^2).

Data set [5] concerns 20S proteasome (CT-L, C-L, T-L activities) in whole blood. The data set can be described thus: In vivo proteasome activity in whole blood. Also on record: species or system mice. As to conditions: 48 h after dose. The protocol:
For the cellular proteasome activity assays, cells were treated with concentrations of compounds (0-10 μM) for 1 h at 37 °C and the CT-L, C-L and T-L activities of proteasome were evaluated by using the Proteasome-Glo assay reagents (Promega Corp. Madison, WI, USA) according to the manufacturer's protocol. For determination of recovery of cellular proteasome activity, cells were treated with the compounds for 1 h and then washed thrice in PBS to remove the compounds. Cells were incubated in fresh medium for an additional 4, 24 or 72 h at 37 °C. […] Blood samples were collected after 1 h, and whole blood cells were then analyzed for proteasome activity as previously described.
For the pharmacodynamic study, female BNX mice (n=6; 5-7 weeks old; Shanghai Sippr-BK laboratory Animal Co. Ltd.) were given one single dose of NNU219 (0.4 mg/kg) and bortezomib (1 mg/kg) by i.v. administrations or NNU546 (2-15 mg/kg) by oral gavage. […] Tissue homogenates and cell lysates were removed by centrifugation and supernatants were collected for protein quantitation and proteasome activity determination using the Proteasome-Glo assay reagents as described above.

Data set [6] concerns patient-derived primary human MM xenografts. The data set can be described thus: Patient-derived MM xenograft (PDX) model in NCG mice. Format: in vivo. As to conditions: 5 mg/kg i.g., BIW, 3 weeks. The text has this: The PDX model was generated from biopsies of patients with MM brain manifestation at the Department of Hematology, the 1st Affiliated Hospital of Nanjing Medical University. Freshly excised tumor tissue specimens were washed and cut into 2.5×2.5×2.5 mm^3 pieces in antibiotic-containing L-15 medium. Under anesthesia with pentobarbital, 4-6 weeks-old male NCG mice (n=6; Model Animal Research Center of Nanjing University) were subcutaneously transplanted with the tumor pieces. Tumors were harvested when their size reached 500 mm^3 (Px1 xenografts). Tumor tissue from Px1 xenograft mice was divided into small pieces and then implanted again subcutaneously as described above to obtain Px2 xenografts. This process was once more and the experiments were performed on Px3 xenograft mice, which were randomized into treatment groups when tumor volume reached 100-150 mm^3. Mice were orally administered with ixazomib (5 mg/kg, i.g., BIW) or NNU546 (1 mg/kg, QD). Tumors were measured twice a week.

What is called CLint scaled is the capacity of the preparation to metabolise the compound, expressed as a volume cleared per time. Read a low CLint scaled as greater metabolic stability. In general, half-life refers to how long it takes for the measured level to halve. Lower therefore signals fast loss. One may read the IC50 as the midpoint of a concentration-inhibition curve. `CC(C)C[C@H](NC(=O)[C@H](Cc1ccccc1)NC(=O)c1cnccn1)B(O)O` [bortezomib]: the CLint scaled at 1 μM in data set [1] was 58.3 mL/min/kg; in data set [2] it was 200 mL/min/kg; in data set [3], 509 mL/min/kg. Moreover, the values for the half-life at 1 μM in data set [1], in data set [2] and in data set [3] were 21.4 min, 12.4 min and 10.7 min, respectively. Moreover, the 50% inhibitory concentration (IC50) in data set [4] amounted to 0.0188 µM. Also, in the data set on ARH77 xenograft (1 mg/kg i.v.), the “reduction of tumor volume” value worked out at 24.9%. Further, the “proteasome inhibition in whole blood at 48 h” value in data set [5] is “only minimal or no inhibition”.
Consider `CC(C)C[C@H](NC(=O)CNC(=O)c1cc(Cl)ccc1Cl)B(O)O` [ixazomib], for which the “reduction of tumor progression” value in the data set with ARH77 xenograft (5 mg/kg i.g.) turned out to be 36.3%. The “reduction of tumor volume” value in data set [6] stood at 30.5%.
